Structures are written as SMILES.

Results on 1 compound are retold here after article PMC5608556, “Photo-affinity labelling and biochemical analyses identify the target of trypanocidal simplified natural product analogues” (PLoS Neglected Tropical Diseases, 2017).

The test system of one assay is Vero. Nature of the assay: Toxicity (EC50) in Vero cells. Format: cell-based. The following applies: Chlorocebus sabaeus, footnote b, read-out: EC50 values Mammal Vero. The text has this: Fig 1 Labelling and detection of B-THP-T target(s). (A) Structures of chamuvarinin and simplified analogues thereof as probes used in this study and their respective toxicity in selected cell lines. Bi-functional compound 3 contains a diazirine (blue) to cross-link the compound to its target and an alkyne handle (red) to which an azide-containing reporter probe can be added. Mono-functional compound 2 contains the diazirine to cross-link to its target but lacks the alkyne handle and cannot be appended with an azide reporter probe. Lead B-THP-T, compound 1, lacks both diazirine and alkyne. The additional functional groups on compounds 2 and 3 are minor alterations, which have little effect on inhibitor potency. (B) Overview of the in vivo pulse-chase photo-affinity labelling procedure. B-THP-T were incubated with live PF T. brucei cells and trafficked to their targets. Following UV-irradiation, only compounds containing a diazirine (i.e. compounds 2 and 3) could cross-link with target proteins. The subsequent “click reaction” appended the conjugated B-THP-T with a reporter probe as long as an alkyne handle was present (i.e. on compound 3). Refer to the experimental section for details. (C) Detection of Cy5.5-tagged proteins following photo-affinity labelling. Proteins were separated by SDS-PAGE and conjugated Cy5.5 was detected at 700 nm. […]

Assay [1] addresses T1, FoF1-ATP synthase F1 β-subunit (GFP-PTP tagged) (Trypanosoma brucei brucei, UniProt Q9GPE9).
T1 construct: The endogenous expression produces tagged protein at physiological levels, allowing it to be trafficked and form complexes in the same way as untagged endogenously expressed protein; expressed in transfected cells; host or cells: procyclic-form T. brucei strain 29-13, stably transfected with BsmI-linearised pC-F1β-GFP-PTP (recombination into the endogenous gene)
As to the kind of experiment: In vivo photo-affinity labelling of GFP-PTP-tagged F1 β-subunit, Cy5.5 detection. Format: binding. As to conditions: 50 μM, in vivo pulse-chase, UV 365 nm. As for the experimental part: Fig 7 B-THP-Ts bind to C-terminal GFP-PTP tagged F1 α- and β- subunits. (A) Stably transfected PF T. brucei cells endogenously-expressing F1 α-GFP-PTP or F1 β-GFP-PTP were loaded with MitoTracker Red CMXros (red) and DAPI (blue) and imaged microscopically to determine localisation of GFP-PTP-tagged protein. […] (B) Following in vivo photo-affinity labelling with 50 μM compound 3 or compound 1 (negative control), GFP-PTP-tagged F1 α- and β-subunits were affinity purified and Cy5.5 clicked on. Proteins were separated by SDS-PAGE and a western blot was performed with mouse anti-GFP / anti-mouse-DyLight 800. […]
Pulse-chase in vivo photo-affinity labelling with bi-functional compound 3 (and lead compound 1 as negative control) was performed on cells from both cell lines expressing GFP-PTP-tagged F1 α- or β-subunits. Tagged subunits were immobilised on IgG-sepharose beads, purified, and Cy5.5 fluorescent reporter clicked on, and proteins were detected by western blotting (Fig 7B). […] In trypanosomatids (but not in other organisms) the native α-subunit is expressed as a 63 KDa protein which is then cleaved by an unknown protease to 20 KDa N-terminal and 43 KDa C-terminal domains, both of which remain associated with the FoF1-ATP synthase complex. […]

T1 sequence (Q9GPE9 22-519): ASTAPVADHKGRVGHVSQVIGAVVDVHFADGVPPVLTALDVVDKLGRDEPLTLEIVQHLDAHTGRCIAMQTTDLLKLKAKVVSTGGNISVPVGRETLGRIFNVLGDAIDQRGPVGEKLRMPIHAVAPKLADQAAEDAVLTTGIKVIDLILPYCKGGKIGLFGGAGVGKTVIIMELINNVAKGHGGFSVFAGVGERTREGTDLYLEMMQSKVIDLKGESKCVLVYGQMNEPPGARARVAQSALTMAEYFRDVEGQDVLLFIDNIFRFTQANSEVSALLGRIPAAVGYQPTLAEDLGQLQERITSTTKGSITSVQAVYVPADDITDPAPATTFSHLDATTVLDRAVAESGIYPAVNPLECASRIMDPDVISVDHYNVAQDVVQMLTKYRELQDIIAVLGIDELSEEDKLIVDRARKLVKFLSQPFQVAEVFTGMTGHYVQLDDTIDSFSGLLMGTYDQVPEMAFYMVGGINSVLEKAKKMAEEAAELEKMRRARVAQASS

Take `C#CCNC(=O)CCC[C@H]1CC2(C[C@@H](Cn3cc([C@@H]4CCC[C@H](CCCCOCc5ccccc5)O4)nn3)O1)N=N2` [Compound 3]: the EC50 in the assay on Vero worked out at 21.3 ± 2 µM. Moreover, the “UV-conjugation (Cy5.5 labelling at 700 nm) to F1 β-GFP-PTP” value in assay [1] was “can UV-conjugate”.

The term EC50 denotes the concentration needed to bring the measured effect to its halfway point.
